Measurements from patent US20170137481A1, “Use of Cell-Permeable Peptide Inhibitors of the JNK Signal Transduction Pathway for the Treatment of Various Diseases” (Xigen Inflammation Ltd., priority 2014, published 2017).

What was measured:
[1] = test system: gerbil model of transient global ischemia; conditions: cited from earlier work
[2] = test system: primary embryonic cultures and differentiated PC12 cells; conditions: after trophic withdrawal; cited from earlier work
[3] = test system: rat model of diabetic nephropathy; assay: STZ rat model of diabetic nephropathy, chronic administration; assay type: in vivo; conditions: XG-102 1, 2, 4 mg/kg iv weekly; Losartan 25 mg/kg po daily
Description: Losartan has been used as a positive control. Seventy-four male Sprague-Dawley rats (200-250 g; including 4 spare animals) from Charles River (Margate, Kent) were used. […] The diet has been purchased from Research Diets, New Jersey, USA. […] Animals have been housed in pairs throughout the study. […] During the third week of habituation, a blood sample has been taken from the lateral tail vein in the freely fed state using a hand-held glucose meter (One Touch Ultra 2). Blood sampling began at approximately 09:00. […] About 40 animals have been assigned to Cohort A and the remaining 30 to Cohort B, balanced as far as possible for body weight, plasma glucose and food and water intake. […] In all groups, food and water intake have been determined twice weekly (on the day of iv dosing and on water refill days. Blood glucose has been determined monthly. Samples were collected as detailed previously by glucometer (One Touch Ultra2). Blood samples have been taken in the freely fed state (beginning at approx. 09:00). Animals have been dosed immediately afterwards by the respective route to a timed schedule. Subsequent to dosing, each animal has been placed in a metabolism cage with free access to food and water for a 24 h period. To reduce evaporation, the glass urine collectors have been placed in a polystyrene container (Sca-online, UK) which was filled with ice. […]

N#CC(c1ccnc(NCCc2cccnc2)n1)c1nc2ccccc2s1 (stereo not drawn) [AS601245]
delayed loss of hippocampal CA1 neurons [1]: significant protection against the delayed loss of hippocampal CA1 neurons

CCSCc1ccc2c(c1)c1c3c(c4c5cc(CSCC)ccc5n5c4c1n2[C@H]1C[C@](O)(C(=O)OC)[C@]5(C)O1)CNC3=O [CEP-1347]
neuronal survival [2]: promotes neuronal survival

CCCCc1nc(Cl)c(CO)n1Cc1ccc(-c2ccccc2-c2nn[nH]n2)cc1 [Losartan]
body weight versus vehicle-treated STZ rats [3]: significantly lower
